Assay results taken from PubChem BioAssay AID344 (DTP/NCI, 2004).
Several values for one entry are separate records, joined by “and”; a condition that tells them apart may be missing. Equal values may be shown once. Inconclusive results and toxic doses are left out.

System: mice, LPC-1 plasma cell tumor ip, median survival T/C
Experiment: NCI In Vivo Anticancer Drug Screen. Data for tumor model Lieberman Plasma Cell No. 1 (LPC-1) (intraperitoneal) in unknown mice
Settings: endpoint: median survival time, higher = longer survival
Description: The antitumor activity of compounds was measured in mice bearing transplantable tumors. Survival or tumor size were measured and the results are expressed as the measurement made in the treated group (T) divided by the measurement made in the vehicle treated control group (C). The tumor model used in this assay is Lieberman Plasma Cell No. 1 (LPC-1) (intraperitoneal) in unknown mice

NC(Cc1ccc(N(CCCl)CCCl)cc1)C(=O)O (stereo unspecified)
T/C (dose: 2.0 mg/kg/injection, schedule: Q01DX028 (sc), vehicle: methylcellulose (MC)): 180 % of control
T/C (dose: 4.0 mg/kg/injection, schedule: Q01DX028 (sc), vehicle: methylcellulose (MC)): 155 % of control
T/C (dose: 8.0 mg/kg/injection, schedule: Q01DX028 (sc), vehicle: methylcellulose (MC)): 108 % of control

N=[N+]=CC(=O)OCC(N)C(=O)O (stereo unspecified)
T/C (dose: 1.8 mg/kg/injection, schedule: Q01DX028 (sc), vehicle: water): 89 % of control
T/C (dose: 3.0 mg/kg/injection, schedule: Q01DX028 (sc), vehicle: water): 102 % of control
T/C (dose: 14.0 mg/kg/injection, schedule: Q01DX028 (sc), vehicle: water): 97 % of control

Cc1c2c(c(C)c3c1OC(C)(C)CC3)OC(C)(C)CC2
T/C (dose: 50.0 mg/kg/injection, schedule: Q01DX009 (sc), vehicle: saline): 104 % of control
T/C (dose: 100.0 mg/kg/injection, schedule: Q01DX009 (sc), vehicle: saline): 97 % of control
T/C (dose: 200.0 mg/kg/injection, schedule: Q01DX009 (sc), vehicle: saline): 95 % of control
T/C (dose: 400.0 mg/kg/injection, schedule: Q01DX009 (sc), vehicle: saline): 90 % of control

C[C@]12C=CC(=O)C=C1CC[C@@H]1[C@@H]2C(=O)C[C@@]2(C)[C@H]1CC[C@]2(O)C(=O)CO
T/C (dose: 16.0 mg/kg/injection, schedule: Q01DX028 (sc), vehicle: water): 86 % of control
T/C (dose: 32.0 mg/kg/injection, schedule: Q01DX028 (sc), vehicle: water): 86 % of control
T/C (dose: 50.0 mg/kg/injection, schedule: Q01DX028 (sc), vehicle: water): 105 % of control
T/C (dose: 128.0 mg/kg/injection, schedule: Q01DX028 (sc), vehicle: water): 91 % of control
T/C (dose: 200.0 mg/kg/injection, schedule: Q01DX028 (sc), vehicle: water): 92 % of control

O=C(O)c1[nH]c(=O)[nH]c(=O)c1F
T/C (dose: 1.8 mg/kg/injection, schedule: Q01DX028 (sc), vehicle: saline): 180 % of control
T/C (dose: 3.0 mg/kg/injection, schedule: Q01DX028 (sc), vehicle: saline): 123 % of control
T/C (dose: 5.0 mg/kg/injection, schedule: Q01DX028 (sc), vehicle: saline): 119 % of control
T/C (dose: 8.4 mg/kg/injection, schedule: Q01DX028 (sc), vehicle: saline): 97 % of control and 114 % of control
T/C (dose: 14.0 mg/kg/injection, schedule: Q01DX028 (sc), vehicle: saline): 93 % of control and 104 % of control
T/C (dose: 23.0 mg/kg/injection, schedule: Q01DX028 (sc), vehicle: saline): 95 % of control and 102 % of control
T/C (dose: 39.0 mg/kg/injection, schedule: Q01DX028 (sc), vehicle: saline): 93 % of control
T/C (dose: 65.0 mg/kg/injection, schedule: Q01DX028 (sc), vehicle: saline): 88 % of control

COc1cc2c(c3c1c(=O)c1ccccc1n3C)C=CC(C)(C)O2
T/C (dose: 9.38 mg/kg/injection, schedule: Q03HX024 (oral), vehicle: steriod suspending solution): 118 % of control
T/C (dose: 18.0 mg/kg/injection, schedule: Q01DX021 (sc), vehicle: other): 121 % of control
T/C (dose: 18.0 mg/kg/injection, schedule: Q03HX008 (sc), vehicle: other): 166 % of control
T/C (dose: 18.75 mg/kg/injection, schedule: Q03HX008 (ip), vehicle: steriod suspending solution): 103 % of control
T/C (dose: 18.75 mg/kg/injection, schedule: Q03HX024 (oral), vehicle: steriod suspending solution): 118 % of control
T/C (dose: 23.0 mg/kg/injection, schedule: Q01DX028 (sc), vehicle: other): 154 % of control
T/C (dose: 27.0 mg/kg/injection, schedule: Q03HX008 (sc), vehicle: other): 280 % of control
T/C (dose: 27.0 mg/kg/injection, schedule: Q03HX024 (sc), vehicle: other): 178 % of control
T/C (dose: 37.5 mg/kg/injection, schedule: Q01DX028 (oral), vehicle: other): 105 % of control
T/C (dose: 37.5 mg/kg/injection, schedule: Q03HX008 (oral), vehicle: steriod suspending solution): 118 % of control
T/C (dose: 37.5 mg/kg/injection, schedule: Q03HX024 (oral), vehicle: steriod suspending solution): 109 % of control
T/C (dose: 40.0 mg/kg/injection, schedule: Q01DX021 (sc), vehicle: other): 164 % of control
T/C (dose: 40.0 mg/kg/injection, schedule: Q03HX008 (sc), vehicle: other): 180 % of control
T/C (dose: 40.0 mg/kg/injection, schedule: Q03HX024 (sc), vehicle: other): 204 % of control
T/C (dose: 60.0 mg/kg/injection, schedule: Q01DX021 (sc), vehicle: other): 173 % of control
T/C (dose: 60.0 mg/kg/injection, schedule: Q04DX003 (sc), vehicle: other): 152 % of control
T/C (dose: 70.0 mg/kg/injection, schedule: Q03HX024 (sc), vehicle: steriod suspending solution): 112 % of control
T/C (dose: 75.0 mg/kg/injection, schedule: Q01DX001 (ip), vehicle: steriod suspending solution): 112 % of control
T/C (dose: 75.0 mg/kg/injection, schedule: Q01DX001 (oral), vehicle: steriod suspending solution): 96 % of control
T/C (dose: 75.0 mg/kg/injection, schedule: Q01DX028 (oral), vehicle: other): 108 % of control
T/C (dose: 75.0 mg/kg/injection, schedule: Q03HX008 (oral), vehicle: steriod suspending solution): 87 % of control
T/C (dose: 75.0 mg/kg/injection, schedule: Q03HX024 (oral), vehicle: steriod suspending solution): 150 % of control
T/C (dose: 90.0 mg/kg/injection, schedule: Q01DX005 (sc), vehicle: other): 150 % of control
T/C (dose: 99.0 mg/kg/injection, schedule: Q01DX020 (oral), vehicle: saline): 120 % of control
T/C (dose: 100.0 mg/kg/injection, schedule: Q01DX001 (sc), vehicle: steriod suspending solution): 100 % of control
T/C (dose: 142.0 mg/kg/injection, schedule: Q01DX001 (sc), vehicle: steriod suspending solution): 104 % of control
T/C (dose: 143.0 mg/kg/injection, schedule: Q03HX008 (sc), vehicle: steriod suspending solution): 153 % of control
T/C (dose: 143.0 mg/kg/injection, schedule: Q03HX024 (sc), vehicle: steriod suspending solution): 156 % of control
T/C (dose: 145.0 mg/kg/injection, schedule: Q03HX024 (sc), vehicle: other): 103 % of control
T/C (dose: 150.0 mg/kg/injection, schedule: Q01DX001 (ip), vehicle: steriod suspending solution): 100 % of control
T/C (dose: 150.0 mg/kg/injection, schedule: Q01DX001 (oral), vehicle: steriod suspending solution): 106 % of control and 112 % of control
T/C (dose: 150.0 mg/kg/injection, schedule: Q01DX028 (oral), vehicle: other): 100 % of control
T/C (dose: 180.0 mg/kg/injection, schedule: Q01DX001 (sc), vehicle: other): 154 % of control
T/C (dose: 180.0 mg/kg/injection, schedule: Q01DX005 (sc), vehicle: other): 171 % of control
T/C (dose: 180.0 mg/kg/injection, schedule: Q04DX003 (sc), vehicle: other): 173 % of control
T/C (dose: 204.0 mg/kg/injection, schedule: Q03HX008 (sc), vehicle: steriod suspending solution): 159 % of control
T/C (dose: 214.0 mg/kg/injection, schedule: Q01DX001 (sc), vehicle: steriod suspending solution): 102 % of control
T/C (dose: 214.0 mg/kg/injection, schedule: Q03HX024 (sc), vehicle: other): 112 % of control and 121 % of control
T/C (dose: 300.0 mg/kg/injection, schedule: Q01DX001 (oral), vehicle: steriod suspending solution): 106 % of control
T/C (dose: 300.0 mg/kg/injection, schedule: Q## X008 (oral), vehicle: other): 161 % of control
T/C (dose: 320.0 mg/kg/injection, schedule: Q01DX001 (sc), vehicle: steriod suspending solution): 104 % of control
T/C (dose: 320.0 mg/kg/injection, schedule: Q03HX024 (sc), vehicle: other): 118 % of control
T/C (dose: 360.0 mg/kg/injection, schedule: Q01DX001 (sc), vehicle: other): 152 % of control
T/C (dose: 480.0 mg/kg/injection, schedule: Q01DX001 (sc), vehicle: steriod suspending solution): 118 % of control
T/C (dose: 528.0 mg/kg/injection, schedule: Q## X008 (sc), vehicle: steriod suspending solution): 116 % of control
T/C (dose: 600.0 mg/kg/injection, schedule: Q01DX001 (ip), vehicle: steriod suspending solution): 112 % of control
T/C (dose: 600.0 mg/kg/injection, schedule: Q01DX001 (oral), vehicle: steriod suspending solution): 120 % of control
T/C (dose: 600.0 mg/kg/injection, schedule: Q## X024 (oral), vehicle: steriod suspending solution): 86 % of control
T/C (dose: 800.0 mg/kg/injection, schedule: Q## X024 (sc), vehicle: steriod suspending solution): 166 % of control
T/C (dose: 1136.0 mg/kg/injection, schedule: Q## X008 (sc), vehicle: steriod suspending solution): 108 % of control
T/C (dose: 1712.0 mg/kg/injection, schedule: Q## X024 (sc), vehicle: steriod suspending solution): 160 % of control
T/C (dose: 2560.0 mg/kg/injection, schedule: Q## X008 (sc), vehicle: steriod suspending solution): 172 % of control
T/C (dose: 2560.0 mg/kg/injection, schedule: Q## X024 (sc), vehicle: steriod suspending solution): 118 % of control
